Data on four molecules can be found in the NIST ThermoML archive (doi:10.1016/j.fluid.2013.10.012).

Data set [1] in a line: refractive index (Na D-line) (dimensionless). The note with it: 298.15 K; 101.33 kPa; Liquid; Standard Abbe refractometry.
The conditions of data set [2]: Liquid; for mass density: 298.15 K, 101.33 kPa, Vibrating tube method; for vapor or sublimation pressure: Ebulliometric method (Recirculating still).

± gives the expanded uncertainty stated by the source.

A word on the refractive index: it is a measure of how strongly the sample bends light. A word on the mass density: it is mass per unit of volume. The vapor or sublimation pressure is the pressure of vapour in equilibrium with the condensed phase. Turning to `Cc1ccccc1C` [1,2-dimethylbenzene], the refractive index in data set [1] was found to be 1.5031 ± 0.0007. Further, the mass density in data set [2] is given as 875.5 ± 1 kg/m3. Also, in data set [2] (347.2 K), the “vapor or sublimation pressure” value came to 10 ± 0.15 kPa.
As for `Cc1cccc(C)c1` [1,3-dimethylbenzene], in data set [1], the refractive index turned out to be 1.4946 ± 0.0007. Further, the mass density in data set [2] stood at 859.95 ± 1 kg/m3. In data set [2] (342.8 K), the “vapor or sublimation pressure” value amounted to 10 ± 0.15 kPa.
Take `Cc1ccc(C)cc1` [1,4-dimethylbenzene]: the refractive index in data set [1] turned out to be 1.4931 ± 0.0007. Further, the mass density in data set [2] is 856.71 ± 1 kg/m3. In addition, the “vapor or sublimation pressure” value in data set [2] (342 K) is 10 ± 0.15 kPa.
Regarding `CCCCCCCCCCC` [undecane], in data set [1], the refractive index turned out to be 1.4152 ± 0.0007. For the same molecule, the mass density in data set [2] is recorded as 736.85 ± 1 kg/m3. Besides, in data set [2] (393.4 K), the “vapor or sublimation pressure” value turned out to be 10 ± 0.15 kPa.
